Reference: PubChem BioAssay AID1195 (EPA DSSTox, 2008)

System: human maximum recommended daily dose, FDA database
Assay: DSSTox (FDAMDD) FDA Maximum (Recommended) Daily Dose Database
Conditions: active compounds read low
Method in brief: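 MRDD values come from clinical trials with daily oral dosing, usually for 3–12 months, for the average adult, in mg/day converted to mg/kg-bw/day assuming 60 kg. Antineoplastic mg/m2 doses are divided by 37. Activity score maps log10(1/MRDD mmol) onto 1–100.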

[1] = TherapeuticCategory: antibacterial
[2] = TherapeuticCategory: antineoplastic
[3] = TherapeuticCategory: diagnostic aid

For `Cc1cc(O)c2ccccc2c1O`, the maximum recommended daily dose (mmol/kg-bw/day) (TherapeuticCategory: prothrombogenic vitamin) was 0.000959.
For `CN(C)C(=O)CCCOC(=O)C(C)(C)Oc1ccc(Cl)cc1`, the maximum recommended daily dose (mmol/kg-bw/day) (TherapeuticCategory: antihyperlipoproteinemic) was 0.137.
`CCC(=O)OC(OP(=O)(CCCCc1ccccc1)CC(=O)N1C[C@H](C2CCCCC2)C[C@H]1C(=O)O)C(C)C` (stereo partly drawn) showed a maximum recommended daily dose (mmol/kg-bw/day) (TherapeuticCategory: antihypertensive) of 0.00236.
Compound `O=c1[nH]c2ccccc2n1C1CCN(CCCC(c2ccc(F)cc2)c2ccc(F)cc2)CC1` has a maximum recommended daily dose (mmol/kg-bw/day) (TherapeuticCategory: antipsychotic) of 0.000362.
`NC[C@H]1O[C@H](O[C@H]2[C@H](O)[C@@H](O[C@H]3O[C@H](CO)[C@@H](O)[C@H](N)[C@H]3O)[C@H](N)C[C@@H]2N)[C@H](N)[C@@H](O)[C@@H]1O` was tested, and the maximum recommended daily dose (mmol/kg-bw/day) [1] was 0.031.
`CNNCc1ccc(C(=O)NC(C)C)cc1` showed a maximum recommended daily dose (mmol/kg-bw/day) [2] of 0.0271.
For `NC(Cc1ccccc1)C(=O)O` (stereo not drawn), the maximum recommended daily dose (mmol/kg-bw/day) [1] was 0.605.
With `CCN(CC)CCNC(=O)c1cc(S(C)(=O)=O)ccc1OC` the maximum recommended daily dose (mmol/kg-bw/day) (TherapeuticCategory: antidyskinetic) was 0.0203.
With `CC(C)=CCN1CC[C@@]2(C)c3cc(O)ccc3C[C@@H]1[C@@H]2C` the maximum recommended daily dose (mmol/kg-bw/day) (TherapeuticCategory: narcotic analgesic) was 0.00876.
`NCCNCCNCCN` gave a maximum recommended daily dose (mmol/kg-bw/day) (TherapeuticCategory: chelating agent, treatmemt of Wilson's disease) of 0.228.
`C=C1C[C@@H]2[C@H](CC[C@]3(C)C(=O)CC[C@@H]23)[C@@]2(C)C=CC(=O)C=C12` showed a maximum recommended daily dose (mmol/kg-bw/day) [2] of 0.00135.
Compound `CCN(CC)C(=O)N[C@H]1C=C2c3cccc4[nH]cc(c34)C[C@H]2N(C)C1` has a maximum recommended daily dose (mmol/kg-bw/day) (TherapeuticCategory: antimigraine, prolactin inhibitor) of 0.000246.
For `NC1=NC(=O)C(c2ccccc2)O1` (stereo not drawn), the maximum recommended daily dose (mmol/kg-bw/day) (TherapeuticCategory: CNS stimulant) was 0.0107.
Work on `CCCC[N+]1(C)[C@@H]2CC(OC(=O)[C@H](CO)c3ccccc3)C[C@H]1[C@@H]1O[C@@H]12` (stereo partly drawn) yielded a maximum recommended daily dose (mmol/kg-bw/day) (TherapeuticCategory: antispasmotic) of 0.00302.
For `CCC1(CC)C(=O)NC(=O)N(C)C1=O`, the maximum recommended daily dose (mmol/kg-bw/day) (TherapeuticCategory: anticonvulsant) was 0.0252.
`CCn1nc(C)c2c1C(c1ccccc1)=NCC(=O)N2` showed a maximum recommended daily dose (mmol/kg-bw/day) (TherapeuticCategory: antianxiolytic) of 0.00496.
Work on `CC(=O)Oc1ccc(C(=C2CCCCC2)c2ccc(OC(C)=O)cc2)cc1` yielded a maximum recommended daily dose (mmol/kg-bw/day) (TherapeuticCategory: gonad stimulating) of 0.0183.
For `COc1cccc2c1C(=O)c1c(O)c3c(c(O)c1C2=O)C[C@@](O)(C(=O)CO)C[C@@H]3O[C@H]1C[C@H](N)[C@@H](O)[C@H](C)O1`, the maximum recommended daily dose (mmol/kg-bw/day) [2] was 0.00447.
For `O=C(O)c1cc(O)c2c(c1)[C@H]([C@H]1c3cc(C(=O)O)cc(O)c3C(=O)c3c(O[C@@H]4O[C@H](CO)[C@@H](O)[C@H](O)[C@H]4O)cccc31)c1cccc(O[C@@H]3O[C@H](CO)[C@@H](O)[C@H](O)[C@H]3O)c1C2=O`, the maximum recommended daily dose (mmol/kg-bw/day) (TherapeuticCategory: cathartic) was 0.0194.
Compound `CC[C@H]1CN2CCc3cc(OC)c(OC)cc3[C@@H]2C[C@@H]1C[C@H]1NCCc2cc(OC)c(OC)cc21` has a maximum recommended daily dose (mmol/kg-bw/day) (TherapeuticCategory: antiamebic) of 0.00208.
Work on `CN1C(=O)CN=C(c2ccccc2)c2cc([N+](=O)[O-])ccc21` yielded a maximum recommended daily dose (mmol/kg-bw/day) (TherapeuticCategory: anticonvulsant, skeletal muscle relaxant) of 0.000282.
For `CCC1(C2=CCCCC2)C(=O)NC(=O)NC1=O`, the maximum recommended daily dose (mmol/kg-bw/day) (TherapeuticCategory: sedative, hypnotic) was 0.0282.
For `CC(=O)Oc1ccc(C2(c3ccc(OC(C)=O)cc3)C(=O)Nc3ccccc32)cc1`, the maximum recommended daily dose (mmol/kg-bw/day) (TherapeuticCategory: cathartic) was 0.00208.
`CC1=C(/C=C/C(C)=C/C=C/C(C)=C/CO)C(C)(C)CCC1` showed a maximum recommended daily dose (mmol/kg-bw/day) (TherapeuticCategory: antixerophthalmic vitamin) of 0.0032.
Work on `NC(N)=NS(=O)(=O)c1ccc(N)cc1` yielded a maximum recommended daily dose (mmol/kg-bw/day) [1] of 0.0934.
In the case of `CN1CCC(OC(c2ccccc2)c2ccccc2)CC1`, the maximum recommended daily dose (mmol/kg-bw/day) (TherapeuticCategory: antihistaminic) is reported as 0.00118.
`CC(=O)OC[C@H]1O[C@@H](n2ncc(=O)[nH]c2=O)[C@H](OC(C)=O)[C@@H]1OC(C)=O` was tested, and the maximum recommended daily dose (mmol/kg-bw/day) (TherapeuticCategory: antineoplastic, antipsoriatic) was 0.458.
`CO[C@H]1C[C@H](O[C@H]2[C@H](C)[C@@H](O[C@@H]3O[C@H](C)C[C@H](N(C)C)[C@H]3O)[C@@H](C)C[C@]3(CO3)C(=O)[C@H](C)[C@@H](O)[C@@H](C)[C@@H](C)OC(=O)[C@@H]2C)O[C@@H](C)[C@@H]1O` gave a maximum recommended daily dose (mmol/kg-bw/day) [1] of 0.0484.
Work on `CO/N=C(/C(=O)N[C@@H]1C(=O)N2C(C(=O)O)=C(COC(C)=O)CS[C@H]12)c1csc(N)n1` yielded a maximum recommended daily dose (mmol/kg-bw/day) [1] of 0.439.
In the case of `NCCC(O)(P(=O)(O)O)P(=O)(O)O`, the maximum recommended daily dose (mmol/kg-bw/day) (TherapeuticCategory: antipagetic) is reported as 0.00638.
With `O=C1OC(c2ccc(O)c(S(=O)(=O)O)c2)(c2ccc(O)c(S(=O)(=O)O)c2)c2c(Br)c(Br)c(Br)c(Br)c21` the maximum recommended daily dose (mmol/kg-bw/day) [3] was 0.00597.
`Cn1nnnc1SCC1=C(C(=O)O)N2C(=O)[C@@H](NC(=O)[C@H](O)c3ccccc3)[C@H]2SC1` gave a maximum recommended daily dose (mmol/kg-bw/day) [1] of 0.216.
With `OCC(O)CO` the maximum recommended daily dose (mmol/kg-bw/day) [3] was 10.8.
